The target of the assay is 3-phosphoinositide-dependent protein kinase 1 (PDPK1) (Homo sapiens) (UniProt O15530). The experiment in a line: Inhibition of PDK1.

pIC50: −log10 of the molar value. Where only a bound is given, the exact number is not on record here.

A word on the pIC50: it is the negative decadic logarithm of the IC50, by convention in mol/L. Low readings indicate a large IC50, high ones a small IC50.

As for `CCOC(=O)c1cnn2c(-c3cccc(NC(=O)c4cccc(C(F)(F)F)c4)c3)ccnc12` [ethyl 7-(3-(3-(trifluoromethyl)benzamido)phenyl)pyrazolo[1,5-a]pyrimidine-3-carboxylate], the negative logarithm of the IC50 (pIC50) was less than 5.00.

The record behind these values is BindingDB's records for doi:10.1016/j.bmcl.2009.03.129 (Wyeth Research, 2009).
